Patent US11415579B2, “Assay for measuring a rate of reaction between a target and a ligand candidate” (Imperial College Innovations Ltd., priority 2016, dated 2022)

Experiments:
Cdk2(S276C) (C177A) = target: T1, Cdk2(S276C) (C177A) (Homo sapiens, UniProt P24941, C177A/S276C); assay: Kinetic thiol consumption assay with Cdk2 mutant S276C; format: binding; set-up: key to Rate enhancement, Cdk2 S276C: rate constant with Cdk2 ÷ rate constant with model thiol (fold); settings: additional mutation C177A; for Rate constant with Cdk2 S276C: Protein: Cdk2, cysteine position S276C, in h^-1
T1 construct: poly-histidine; made in house; host or cells: E. coli
Procedure, shortened: (§1)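 His-tagged single-surface-cysteine Cdk2 mutants (C177A background) from E. coli, 5 μM in degassed phosphate buffer pH 8, pre-treated with immobilized TCEP beads. Fluorescence (ex/em 380/470 nm) read after 1 h at room temperature, normalized to DMSO/thiol-only control; first-order decay fits gave rate constants, divided by model-thiol rate for rate enhancement.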

Cdk2(T182C) (C177A) = target: T2, Cdk2(T182C) (C177A) (Homo sapiens, UniProt P24941, C177A/T182C); assay: Kinetic thiol consumption assay with Cdk2 mutant T182C; format: binding; set-up: key to Rate enhancement, Cdk2 T182C: rate constant with Cdk2 ÷ rate constant with model thiol (fold); settings: additional mutation C177A; for Rate constant with Cdk2 T182C: Protein: Cdk2, cysteine position T182C, in h^-1
T2 construct: poly-histidine; made in house; host or cells: E. coli
Procedure, shortened: as §1

Cdk2[C177A, F80C, K278C] = target: T3, Cdk2[C177A, F80C, K278C] (Homo sapiens, UniProt P24941, C177A/F80C/K278C); assay: Kinetic thiol consumption assay with mutant Cdk2 as model thiol; format: binding; set-up: unit not given here; settings: 500 μM ligand, 5 μM thiol, phosphate buffer pH 8
T3 construct: poly-histidine; made in house; host or cells: E. coli
Description: A library of 120 acrylamides was screened against a) human cyclin-dependent kinase 2 (Cdk2, which contains one surface exposed cysteine residue—C177), prepared by cloning cDNA into the pRSETA bacterial expression vector to generate a poly-histidine tagged Cdk2 fusion that was purified from E. coli using standard techniques, and b) a model thiol (specific details are given below). The structures of these 120 acrylamides are set out in Table 1, above.
To wells containing 150 μL thiol (Cdk2 or model thiol) (5 μM) in degassed phosphate buffer (pH 8) was added immobilized TCEP beads (2% v/v).
After incubation of the fluorescence plates for 1 hour at room temperature, fluorescence measurements (excitation/emission of 380/470 nm) were taken on a PerkinElmer EnVision multilabel plate reader and processed with EnVision Workstation version 1.12.
Fluorescence measurements were normalized against a DMSO/thiol only control and plotted against time.
Rate constants were calculated using GraphPad software Prism version 6 by fitting a first order exponential decay to the data. The rate constant for each acrylamide with Cdk2 was divided by the rate constant for that fragment with the model thiol to provide the rate enhancement for each ligand candidate.
The model thiol used in Example 2 is a mutant form of human Cdk2 (C177A, F80C, K278C) which contains two engineered surface exposed cysteine residues. Mutations were introduced by site-directed mutagenesis and the resulting cDNA was cloned into the pRSETA bacterial expression vector to generate a poly-histidine tagged Cdk2 fusion that was purified from E. coli using standard techniques.

Cdk2(R122C) (C177A) = target: T4, Cdk2(R122C) (C177A) (Homo sapiens, UniProt P24941, C177A/R122C); assay: Kinetic thiol consumption assay with Cdk2 mutant R122C; format: binding; set-up: key to Rate enhancement, Cdk2 R122C: rate constant with Cdk2 ÷ rate constant with model thiol (fold); settings: additional mutation C177A; for Rate constant with Cdk2 R122C: Protein: Cdk2, cysteine position R122C, in h-1
T4 construct: poly-histidine; made in house; host or cells: E. coli
Procedure, shortened: as §1

[1] = target: T5, human cyclin-dependent kinase 2 (Cdk2) (Homo sapiens, UniProt P24941); assay: Kinetic thiol consumption assay with wild type Cdk2 (C177); format: binding; set-up: key to Rate enhancement, Cdk2 WT: k(Cdk2) divided by k(model thiol); Rate constant with Cdk2 (k(Cdk2)): unit not given here; settings: for Rate constant with Cdk2 (k(Cdk2)): 500 μM ligand, 5 μM thiol, phosphate buffer pH 8; for Rate enhancement, Cdk2 WT: no additional mutations; for Rate constant with Cdk2 WT: Protein: Cdk2, cysteine position WT, in h^-1; for k(Cdk2)/k(Cdk2_mut) rate enhancement: model thiol Cdk2[C177A, F80C, K278C]; for k(Cdk2)/k(GSH) rate enhancement: model thiol glutathione
T5 construct: poly-histidine; made in house; host or cells: E. coli
Procedure, shortened: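 His-tagged human Cdk2 from E. coli (sole surface cysteine C177) or a model thiol, each 5 μM in degassed phosphate buffer pH 8 with immobilized TCEP, reacted with acrylamides at room temperature. Fluorescence (ex 380/em 470) normalized to DMSO/thiol control over time; first-order rate constants, Cdk2 rate divided by model-thiol rate.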

Cdk2(H71C) (C177A) = target: T6, Cdk2(H71C) (C177A) (Homo sapiens, UniProt P24941, C177A/H71C); assay: Kinetic thiol consumption assay with Cdk2 mutant H71C; format: binding; set-up: key to Rate enhancement, Cdk2 H71C: rate constant with Cdk2 ÷ rate constant with model thiol (fold); settings: additional mutation C177A; for Rate constant with Cdk2 H71C: Protein: Cdk2, cysteine position H71C, in h^-1
T6 construct: poly-histidine; made in house; host or cells: E. coli
Procedure, shortened: as §1

Cdk2(N272C) (C177A) = target: T7, Cdk2(N272C) (C177A) (Homo sapiens, UniProt P24941, C177A/N272C); assay: Kinetic thiol consumption assay with Cdk2 mutant N272C; format: binding; set-up: key to Rate enhancement, Cdk2 N272: rate constant with Cdk2 ÷ rate constant with model thiol (fold); settings: for Rate enhancement, Cdk2 N272: Cdk2 N272, additional mutation C177A; for Rate constant with Cdk2 N272C: Protein: Cdk2, cysteine position N272C, additional mutation C177A, in h^-1
T7 construct: poly-histidine; made in house; host or cells: E. coli
Procedure, shortened: as §1

[2] = Kinetic thiol consumption assay with model thiol glutathione; format: physicochemical; set-up: Rate constant with glutathione (k(GSH)): unit not given here; settings: for Rate constant with glutathione (k(GSH)): 500 μM ligand, 5 μM thiol, phosphate buffer pH 8; for Rate constant with Glutathione: Protein: Glutathione, cysteine position NA, in h-1
Procedure, shortened: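 First, 5 μM glutathione in degassed phosphate buffer (pH 8) receives immobilized TCEP beads (2% v/v). Then acrylamide is added and plates incubate 1 h at room temperature. Finally, fluorescence (380/470 nm) is normalized and fitted to first-order decay for rate constants.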

Cdk2(S181C) (C177A) = target: T8, Cdk2(S181C) (C177A) (Homo sapiens, UniProt P24941, C177A/S181C); assay: Kinetic thiol consumption assay with Cdk2 mutant S181C; format: binding; set-up: key to Rate enhancement, Cdk2 S181C: rate constant with Cdk2 ÷ rate constant with model thiol (fold); settings: additional mutation C177A; for Rate constant with Cdk2 S181C: Protein: Cdk2, cysteine position S181C, in h^-1
T8 construct: poly-histidine; made in house; host or cells: E. coli
Procedure, shortened: as §1

Cdk2(C177A, F80C) = target: T9, Cdk2(C177A, F80C) (Homo sapiens, UniProt P24941, C177A/F80C); assay: Kinetic thiol consumption assay with Cdk2 mutant F80C, incl. kobs versus concentration (Kd, k2); format: binding; set-up: key to Rate enhancement, Cdk2 F80C: Cdk2 rate constant divided by model-thiol rate constant; settings: additional mutation C177A; for Rate constant with Cdk2 F80C: Protein: Cdk2, cysteine position F80C, in h^-1
T9 construct: poly-histidine; made in house; host or cells: E. coli
Procedure, shortened: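 His-tagged Cdk2(C177A/F80C) from E. coli or model thiol, 5 μM in degassed phosphate buffer pH 8 with TCEP beads, reacted with acrylamide ligands; fluorescence (ex/em 380/470 nm) normalized to DMSO control and fitted to first-order decay for kobs. Kd and k2 obtained from hyperbolic fit of kobs versus ligand concentration.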

Compound | Rate enhancement, Cdk2 S276C (Cdk2(S276C) (C177A)) | Rate constant with Cdk2 S276C (Cdk2(S276C) (C177A)) | Rate enhancement, Cdk2 T182C (Cdk2(T182C) (C177A)) | Rate constant with Cdk2 T182C (Cdk2(T182C) (C177A)) | Rate constant with Cdk2[C177A, F80C, K278C] (k(Cdk2_mut)) (Cdk2[C177A, F80C, K278C]) | Rate enhancement, Cdk2 R122C (Cdk2(R122C) (C177A)) | Rate constant with Cdk2 R122C (Cdk2(R122C) (C177A)) | Rate constant with Cdk2 (k(Cdk2)) [1] | Rate enhancement, Cdk2 WT [1] | Rate constant with Cdk2 WT [1] | k(Cdk2)/k(Cdk2_mut) rate enhancement [1] | k(Cdk2)/k(GSH) rate enhancement [1] | Rate enhancement, Cdk2 H71C (Cdk2(H71C) (C177A)) | Rate enhancement, Cdk2 N272 (Cdk2(N272C) (C177A)) | Rate constant with glutathione (k(GSH)) [2] | Rate constant with Glutathione [2] | Rate enhancement, Cdk2 S181C (Cdk2(S181C) (C177A)) | Rate constant with Cdk2 S181C (Cdk2(S181C) (C177A)) | Rate enhancement, Cdk2 F80C (Cdk2(C177A, F80C)) | Rate constant with Cdk2 H71C (Cdk2(H71C) (C177A)) | further results
C=CC(=O)NC1(c2noc(C3CC3)n2)CCCC1 [CA-044] | 0.1116 | 0.0009087 | 0.2903 | 0.002365 | 0.00154 | 0.2302 | 0.001875 | 0.00269 | 0.3307 | 0.002694 | 1.749 | 0.4838 | 0 | 0 | 0.00557 | 0.008146 | 0.1134 | 0.0009239 | 0 |  | 
C=CC(=O)NC1C[C@@H](C(=C)C)CC=C1C (stereo partly shown) [EL-1074] | 0.4274 | 0.004381 | 1.829 | 0.01875 | 0.00342 | 0.322 | 0.0033 | 0.003 | 0.5934 | 0.006082 | 0.8773 | 0.3421 | 0.248 | 0.6473 | 0.00876 | 0.01025 | 0.214 | 0.002194 | 0.4555 | 0.002542 | Rate constant with Cdk2 N272C (Cdk2(N272C) (C177A)): 0.006635; Rate constant with Cdk2 F80C (Cdk2(C177A, F80C)): 0.004669
C=CC(=O)N1CCC2(CC1)NC(=O)C1(CCCCC1)N2 [CA-129] |  |  |  |  | 0.00208 |  |  | 0.00274 |  |  | 1.317 | 0.3553 |  |  | 0.00771 |  |  |  |  |  | 
C=CC(=O)N1CCN(C(=O)OC(C)(C)C)CC1 [CA-029] | 0.3272 | 0.006904 | 1.766 | 0.03726 | 0.00615 | 0.2033 | 0.004289 | 0.00892 | 0.4226 | 0.008917 | 1.45 | 0.5196 | 0.1266 | 0.2719 | 0.01716 | 0.0211 | 0.3298 | 0.006959 | 0.1236 | 0.002672 | Rate constant with Cdk2 N272C (Cdk2(N272C) (C177A)): 0.005738; Rate constant with Cdk2 F80C (Cdk2(C177A, F80C)): 0.002607
C=CC(=O)N1CCCCCC1C/C=C/c1ccccc1 (stereo not shown) [CA-096] |  |  |  |  | 0.01283 |  |  | 0.0034 |  |  | 0.2652 | 0.3001 |  |  | 0.01134 |  |  |  |  |  | 
